Values of other authors as cited in patent publication US20240350500A1, “PLK1 INHIBITOR IN COMBINATION WITH ANTI-ANGIOGENICS FOR TREATING METASTATIC CANCER” (CARDIFF ONCOLOGY, INC., priority 2022, published 2024).
Where two headings read alike, the source gives them in different places. Each block holds one compound with its values, some of them ahead of it.

Legend:
[1] = target: PLK1 (Homo sapiens, UniProt P53350); details: including other PLK members
[2] = tested on: AML cell lines
[3] = tested on: xenograft models of AML
[4] = tested on: disseminated models of AML; details: in combination with cytarabine
[5] = tested on: cell lines, both from solid as well as hematologic tumors
[6] = tested on: HT29 human colon adenocarcinoma xenografts; details: in combination with irinotecan, compared to each agent alone
[7] = rodent and nonrodent species
[8] = tested on: AML; details: intravenously in combination with LDAC, compared with LDAC alone; treatment naïve AML unsuitable for induction therapy
[9] = tested on: AML; details: combination with LDAC
[10] = tested on: metastatic colorectal cancer; details: 2nd line
[11] = bev naïve (without prior bevacizumab)

PLK1, sequence (P53350 whole entry): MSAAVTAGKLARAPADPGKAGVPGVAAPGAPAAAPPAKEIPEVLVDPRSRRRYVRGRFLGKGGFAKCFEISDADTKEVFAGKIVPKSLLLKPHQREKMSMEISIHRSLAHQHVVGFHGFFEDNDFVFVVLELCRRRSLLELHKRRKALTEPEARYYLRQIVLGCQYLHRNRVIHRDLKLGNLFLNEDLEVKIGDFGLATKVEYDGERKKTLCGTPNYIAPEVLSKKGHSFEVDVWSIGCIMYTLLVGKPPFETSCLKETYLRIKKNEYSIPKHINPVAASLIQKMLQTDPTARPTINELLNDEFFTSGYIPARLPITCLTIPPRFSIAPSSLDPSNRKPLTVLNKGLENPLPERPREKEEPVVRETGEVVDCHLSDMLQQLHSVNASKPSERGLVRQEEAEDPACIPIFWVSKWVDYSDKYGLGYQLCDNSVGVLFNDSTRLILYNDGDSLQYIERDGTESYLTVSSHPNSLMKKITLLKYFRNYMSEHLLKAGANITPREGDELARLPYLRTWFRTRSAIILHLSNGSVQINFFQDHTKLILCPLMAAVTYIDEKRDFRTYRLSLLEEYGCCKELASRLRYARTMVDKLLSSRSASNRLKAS

specificity for PLK1 among a panel of 296 kinases [1]: high specificity
oral bioavailability [7]: good oral bioavailability
Compound: CN1CCN(c2ccc(OC(F)(F)F)c(Nc3ncc4c(n3)-c3c(c(C(N)=O)nn3CCO)CC4)c2)CC1 [onvansertib, 1-(2-hydroxyethyl)-8-{[5-(4-methylpiperazin-1-yl)-2-(trifluoromethoxy)phenyl]amino}-4,5-dihydro-1H-pyrazolo[4,3-h]quinazoline-3-carboxamide]
inhibition of cell proliferation [2]: inhibited cell proliferation at nanomolar concentrations
tumor growth [3]: inhibited
effect on cytarabine antitumor activity [4]: significantly increased cytarabine antitumor activity
cell-cycle effect ([5]; cancer cell lines): mitotic cell-cycle arrest followed by apoptosis
potency in proliferation assays ([5]; large number of cell lines): low nanomolar activity
tumor regression [6]: enhanced tumor regression
primary dose-limiting toxicities (patients with advanced/metastatic solid tumors): neutropenia and thrombocytopenia
time to recovery from hematologic toxicities (reversible): ≤ 3 weeks

risk of severe infections [9]: increased risk of severe infections
Compound: CC[C@@H]1C(=O)N(C)c2cnc(Nc3ccc(C(=O)N[C@H]4CC[C@H](N5CCN(CC6CC6)CC5)CC4)cc3OC)nc2N1C(C)C [volasertib]
OS [8]: significant increase in OS
benefit of the combination [9]: no benefit

Compound: bevacizumab: anti-angiogenics (angiogenesis inhibitor), Avastin
mOS [10, 11]: 13.9 months
mPFS [10, 11]: 6.9 months
mOS ([10]; patients with prior bev): 12.5 months
mPFS ([10]; patients with prior bev): 6.7 months
